The values that follow come from patent US4659859A, “2-alkoxy-1-alkoxy phosphoryl dichlorides” (priority 1986, dated 1987).

In data set [1] the test system is spontaneously hypertensive rats (SHR). In words: Blood pressure and heart rate in spontaneously hypertensive rats, tail cuff method. The note with it: administered subcutaneously, various dose levels. Format: in vivo, rat. An excerpt:
(§1) The above compounds are also active in lowering the blood pressure of spontaneously hypertensive rats (SHR). […] In the table, column 1 gives the compound used, column 2 the dose level, column 3, the route of administration, column 4, number of rats, column 5, the time of blood pressure measurement, column 6, blood pressure in mm (Hg), and column 7, heart rate.
*B.P. measured by tail cuff method.

In data set [2] the test system is X-5563 plasma cell myeloma. In words: Antitumor activity vs X-5563 plasma cell myeloma in mice. Type of data set: in vivo. The conditions noted are these: daily for 10 days after inoculation. From the text:
Compounds according to formula II above are also active against transplanted tumors in mice. Table II which follows gives the results of testing (d,1)-2-ethoxy-1-[(2-trimethylaminoethoxy)phosphinyloxy]-eicosane,hydroxy inner salt, (A), against several such tumors. In the table, column 1 gives the name of the tumor, column 2 the dosage levels, column 3 toxic deaths, column 4, the percent tumor growth inhibition and column 5, the dosage schedule or regimen. Ten mice were given each dosage I.P. and a group of 20 mice used as controls.
Table III gives the results obtained by comparing the activity of the racemate (d,1)-2-ethoxy-1-[(2-trimethylaminoethoxy)phosphinyloxy]eicosane,hydroxy inner salt (A), the L-(-)enantiomer (B) and the D-(+)enantiomer (C) versus X-5563, a plasma cell myeloma.

Data set [3] deals with spontaneously hypertensive rats (SHR). In words: Blood pressure and heart rate in spontaneously hypertensive rats, femoral artery cannula. Format: in vivo, rat. The note with it: for Blood pressure: femoral artery cannula.
Text: as §1
**B.P. measured by femoral artery cannula.

The subject of another data set is leukemic cells. The conditions noted are these: Tidwell et al., Blood, 57, 794 (1981); cited from earlier work.
Data set [4] concerns carageenin-induced edema (rat paw swelling). In words: Carageenin-induced edema (acute inflammation) model, rat paw swelling. Type of data set: in vivo. The conditions noted are these: 25 mg/kg oral, at 4 hours, group of 5 rats. An excerpt: It is well known that free arachidonic acid may be processed into potent inflammatory mediators such as the leukotrienes, prostaglandins, thromboxane A2 and prostacyclin. Inhibition of the release of arachidonic acid could result in a lowered inflammatory response.

The test system of data set [5] is release of arachidonic acid from membrane phospholipids (rabbit neutrophils). In words: Inhibition of release of arachidonic acid from membrane phospholipids in glycogen-elicited rabbit neutrophils. Format: cell-based. The note with it: A-23187 0.5 mcg/ml activation, 5 minutes pretreatment at 37° C. Here is the method:
In this procedure, glycogen-elicited rabbit neutrophils are labelled with ^14 C-arachidonic acid by incubation for one hour at 37° C. and followed by treatment with the compound under test at 37° C. for 5 minutes. The cells were then activated by addition of 0.5 mcg/ml of A-23187 (an ionophore) for 5 minutes. Cellular metabolism was stopped; the membrane lipids extracted; and the extracted lipids chromatographed on TLC plates. Assays were conducted for free ^14 C-arachidonic acid and hydroxy^14 C-eicosatetraenoic acid (HETES) using a radiochromatogram scanner.

The mark [6] stands for this setting: 3 mg/kg I.V., 0 hours (baseline).
Setting [7] is: 10 mg/kg I.V., 0 hours (baseline).

Where a name gives a salt, the structure may show the parent alone.

In the case of `CCCCCCCCCCCCCCCCCC[C@H](COP(=O)([O-])OCC[N+](C)(C)C)OCC` [Compound 2, L-2-Ethoxy-1-[(2-trimethylaminoethoxy)phosphinyloxy]eicosane, hydroxy inner salt], the “hypotensive effects in SHR (in words)” value in data set [1] was “hypotensive effects”. Besides, the “Percent inhibition of Tumor growth” value is 18% in data set [2] (2.5 mg/kg), 44% in data set [2] (5 mg/kg), 53% in data set [2] (10 mg/kg) and 67% in data set [2] (20 mg/kg). The Toxic deaths is recorded as 1/10 in data set [2] (2.5 mg/kg), 1/10 in data set [2] (5 mg/kg), 0/10 in data set [2] (10 mg/kg) and 0/10 in data set [2] (20 mg/kg). In addition, the Heart Rate in data set [3] (setting [6]) worked out at 340 beats/min; in data set [3] (3 mg/kg I.V., 1.0 hours) it was 380 beats/min; in data set [3] (3 mg/kg I.V., .08 hours) it was 385 beats/min; in data set [3] (3 mg/kg I.V., .25 hours) it was 367 beats/min; in data set [3] (3 mg/kg I.V., .5 hours), 370 beats/min. The Blood pressure in data set [3] (setting [6]) came to 177 mm Hg; in data set [3] (3 mg/kg I.V., 1.0 hours), 162 mm Hg; in data set [3] (3 mg/kg I.V., .08 hours), 107 mm Hg; in data set [3] (3 mg/kg I.V., .25 hours), 144 mm Hg; in data set [3] (3 mg/kg I.V., .5 hours), 162 mm Hg.
In the case of `CCCCCCCCCCCCCCCCCCOCC(COP(=O)([O-])OCC[N+](C)(C)C)OC` (stereo not drawn), the “inhibits the proliferation of leukemic cells” value with leukemic cells is reported as “inhibits the proliferation of leukemic cells”.
`CCCCCCCCCCCCCCCCCC[C@@H](COP(=O)([O-])OCC[N+](C)(C)C)OCC` [Compound 1, D-2-Ethoxy-1-[(2-trimethylaminoethoxy)phosphinyloxy]eicosane, hydroxy inner salt]: the “Percent inhibition of Tumor growth” value in data set [2] (17 mg/kg) is 76%; in data set [2] (25 mg/kg), 95%; in data set [2] (35 mg/kg), “Toxic”; in data set [2] (50 mg/kg) it was “Toxic”. The Toxic deaths is on record as 2/10 in data set [2] (17 mg/kg), 1/10 in data set [2] (25 mg/kg), 5/10 in data set [2] (35 mg/kg) and 10/10 in data set [2] (50 mg/kg). Further, the Heart Rate was 326 beats/min in data set [3] (setting [6]); 376 beats/min in data set [3] (3 mg/kg I.V., 1.0 hours); 373 beats/min in data set [3] (3 mg/kg I.V., .08 hours); 400 beats/min in data set [3] (3 mg/kg I.V., .25 hours); 346 beats/min in data set [3] (3 mg/kg I.V., .5 hours); 345 beats/min in data set [3] (setting [7]). Also, the Heart Rate came to 355 beats/min in data set [3] (10 mg/kg I.V., 1.0 hours); 360 beats/min in data set [3] (10 mg/kg I.V., .08 hours); 360 beats/min in data set [3] (10 mg/kg I.V., .25 hours); 345 beats/min in data set [3] (10 mg/kg I.V., .5 hours). The Blood pressure is on record as 197 mm Hg in data set [3] (setting [6]); 194 mm Hg in data set [3] (3 mg/kg I.V., 1.0 hours); 197 mm Hg in data set [3] (3 mg/kg I.V., .08 hours); 200 mm Hg in data set [3] (3 mg/kg I.V., .25 hours); 188 mm Hg in data set [3] (3 mg/kg I.V., .5 hours); 183 mm Hg in data set [3] (setting [7]). Besides, the Blood pressure in data set [3] (10 mg/kg I.V., 1.0 hours) was determined as 178 mm Hg; in data set [3] (10 mg/kg I.V., .08 hours), 185 mm Hg; in data set [3] (10 mg/kg I.V., .25 hours), 184 mm Hg; in data set [3] (10 mg/kg I.V., .5 hours), 177 mm Hg.
On to `CCCCCCCCCCCCCCCCCCC(COP(=O)([O-])OCC[N+](C)(C)C)OC` (racemic) [Compound 7, (d,l)-2-Methoxy-1-[(2-trimethylaminoethoxy)phosphinyloxy]eicosane, hydroxy inner salt], for which the “inhibition of rat paw swelling” value in data set [4] amounted to 68%. For the same compound, in data set [5], the “inhibition of the release of arachidonic acid (AA) from phospholipids” value is 88%; the “inhibition of the total production of free AA and HETES” value amounted to 100%.
